From patent US9707305B2, “Formulas for diagnosing and treating hormone-dependent cancers and cancers of the organs responsible for steroid hormone synthesis” (Commissariat à l'énergie atomique et aux énergies …, priority 2011, dated 2017)

Key:
[1] = Biodistribution of the mixture of three free tracers (not formulated as nano-emulsion), comparative; format: in vivo; settings: FVB female mouse
Method: (§1) In the following examples, the radioactivity was counted with the TRiCarb Counter (Ref: Packard, Liquid Scintillation Analyzers; Models 2200CA).
(§2) Fluobeam 700 (Fluoptics) is the apparatus with which the whole of the organs from the biodistribution were analyzed in fluorescence as well as the one with which the biodistribution kinetics of the nano-emulsions were established in vivo. This imaging system allows viewing of the fluorescence in spectral bands from 700 to 850 nm for a 650 nm excitation. The apparatus consists of an electric case containing the laser of class 3B, its power supply and an optical head containing the CCD camera.
As a comparison, a mixture of three tracers ([3H]CHE, [14C]CO and DiD) (not formulated as a nano-emulsion) was injected in order to observe the distribution of the tracers in the absence of droplets being used as a distribution carrier.

[2] = Biodistribution of the nano-emulsion of Example 1.1 in male mice (Tables 15 to 21); format: in vivo; settings: FVB male mouse
Method: as §1
as §2, with “camera. […]” for “camera.”

[3] = 2 h after injection of free tracers (not nano-emulsion)
[4] = 6 h after injection of free tracers (not nano-emulsion)
[5] = 16 h after injection of free tracers (not nano-emulsion)
[6] = 24 h after injection of free tracers (not nano-emulsion)

## CCCCCCCCCCCCCCCCCCN1/C(=C/C=C/C=C/C2=[N+](CCCCCCCCCCCCCCCCCC)c3ccccc3C2(C)C)C(C)(C)c2ccccc21.[O-][Cl+3]([O-])([O-])[O-] [DiD, l,r-dioctadécyl-3,3,3′,3′-tetramethylindodicarbocyanine (DiD) perchlorate]
[1]; [3]
  fluorescence intensity, Adrenal glands (MEAN): 730.45 photons per pixel, reduced to
  fluorescence intensity, Brain (MEAN): 439.56 photons per pixel, reduced to
  fluorescence intensity, Fat (MEAN): 280.30 photons per pixel, reduced to
  fluorescence intensity, Heart (MEAN): 487.37 photons per pixel, reduced to
  fluorescence intensity, Intestine (MEAN): 451.58 photons per pixel, reduced to
  fluorescence intensity, Kidney (MEAN): 862.35 photons per pixel, reduced to
  fluorescence intensity, Liver (MEAN): 2477.20 photons per pixel, reduced to
  fluorescence intensity, Lung (MEAN): 848.08 photons per pixel, reduced to
  fluorescence intensity, Muscle (MEAN): 211.84 photons per pixel, reduced to
  fluorescence intensity, Ovary (MEAN): 954.70 photons per pixel, reduced to
  fluorescence intensity, Pancreas (MEAN): 466.58 photons per pixel, reduced to
  fluorescence intensity, Salivary gland (MEAN): 399.58 photons per pixel, reduced to
  fluorescence intensity, Spleen (MEAN): 1162.07 photons per pixel, reduced to
  fluorescence intensity, Uterus (MEAN): 694.28 photons per pixel, reduced to
[1]; [4]
  fluorescence intensity, Adrenal glands (MEAN): 208.14 photons per pixel, reduced to
  fluorescence intensity, Brain (MEAN): 116.17 photons per pixel, reduced to
  fluorescence intensity, Fat (MEAN): 234.61 photons per pixel, reduced to
  fluorescence intensity, Heart (MEAN): 346.63 photons per pixel, reduced to
  fluorescence intensity, Intestine (MEAN): 363.09 photons per pixel, reduced to
  fluorescence intensity, Kidney (MEAN): 573.78 photons per pixel, reduced to
  fluorescence intensity, Liver (MEAN): 2293.21 photons per pixel, reduced to
  fluorescence intensity, Lung (MEAN): 433.52 photons per pixel, reduced to
  fluorescence intensity, Muscle (MEAN): 108.34 photons per pixel, reduced to
  fluorescence intensity, Ovary (MEAN): 250.27 photons per pixel, reduced to
  fluorescence intensity, Pancreas (MEAN): 191.73 photons per pixel, reduced to
  fluorescence intensity, Salivary gland (MEAN): 232.98 photons per pixel, reduced to
  fluorescence intensity, Spleen (MEAN): 3224.12 photons per pixel, reduced to
  fluorescence intensity, Uterus (MEAN): 506.03 photons per pixel, reduced to
[1]; [5]
  fluorescence intensity, Adrenal gland (MEAN): 1683.36 photons per pixel, reduced to
  fluorescence intensity, Brain (MEAN): −24.23 photons per pixel, reduced to
  fluorescence intensity, Fat (MEAN): 295.69 photons per pixel, reduced to
  fluorescence intensity, Heart (MEAN): 186.72 photons per pixel, reduced to
  fluorescence intensity, Intestine (MEAN): 505.69 photons per pixel, reduced to
  fluorescence intensity, Kidney (MEAN): 382.29 photons per pixel, reduced to
  fluorescence intensity, Liver (MEAN): 2954.59 photons per pixel, reduced to
  fluorescence intensity, Lung (MEAN): 370.94 photons per pixel, reduced to
  fluorescence intensity, Muscle (MEAN): 93.88 photons per pixel, reduced to
  fluorescence intensity, Ovary (MEAN): 729.53 photons per pixel, reduced to
  fluorescence intensity, Pancreas (MEAN): 101.87 photons per pixel, reduced to
  fluorescence intensity, Salivary gland (MEAN): 271.01 photons per pixel, reduced to
  fluorescence intensity, Spleen (MEAN): 3403.29 photons per pixel, reduced to
  fluorescence intensity, Uterus (MEAN): 665.40 photons per pixel, reduced to
[1]; [6]
  fluorescence intensity, Adrenal gland (MEAN): 653.68 photons per pixel, reduced to
  fluorescence intensity, Brain (MEAN): 57.68 photons per pixel, reduced to
  fluorescence intensity, Fat (MEAN): 344.99 photons per pixel, reduced to
  fluorescence intensity, Heart (MEAN): 285.67 photons per pixel, reduced to
  fluorescence intensity, Intestine (MEAN): 354.94 photons per pixel, reduced to
  fluorescence intensity, Kidney (MEAN): 397.90 photons per pixel, reduced to
  fluorescence intensity, Liver (MEAN): 2663.45 photons per pixel, reduced to
  fluorescence intensity, Lung (MEAN): 300.36 photons per pixel, reduced to
  fluorescence intensity, Muscle (MEAN): 289.03 photons per pixel, reduced to
  fluorescence intensity, Ovary (MEAN): 989.32 photons per pixel, reduced to
  fluorescence intensity, Pancreas (MEAN): 158.45 photons per pixel, reduced to
  fluorescence intensity, Salivary gland (MEAN): 187.28 photons per pixel, reduced to
  fluorescence intensity, Spleen (MEAN): 3880.70 photons per pixel, reduced to
  fluorescence intensity, Uterus (MEAN): 636.69 photons per pixel, reduced to
[1]; Tables 2 to 5 (2 to 24 h), free tracer
  accumulation in the liver and the spleen, tracer DiD alone: Strong accumulation
[2]; 2 h
  fluorescence intensity in Adrenal gland: 779.1
  fluorescence intensity in Brain: 186.5
  fluorescence intensity in Fat: 184.0
  fluorescence intensity in Heart: 427.6
  fluorescence intensity in Intestine: 392.1
  fluorescence intensity in Kidney: 601.1
  fluorescence intensity in Liver: 831.9
  fluorescence intensity in Lung: 559.9
  fluorescence intensity in Muscle: 176.7
  fluorescence intensity in Pancreas: 255.1
  fluorescence intensity in Salivary gland: 310.0
  fluorescence intensity in Spleen: 455.7
  fluorescence intensity in Testicle: 639.9
[2]; 4 h
  fluorescence intensity in Adrenal gland: 536.1
  fluorescence intensity in Brain: 150.6
  fluorescence intensity in Fat: 128.3
  fluorescence intensity in Heart: 306.9
  fluorescence intensity in Intestine: 336.2
  fluorescence intensity in Kidney: 505.0
  fluorescence intensity in Liver: 813.0
  fluorescence intensity in Lung: 446.4
  fluorescence intensity in Muscle: 152.3
  fluorescence intensity in Pancreas: 295.0
  fluorescence intensity in Salivary gland: 297.8
  fluorescence intensity in Seminal gland: 179.5
  fluorescence intensity in Spleen: 407.4
  fluorescence intensity in Testicle: 470.9
[2]; 6 h
  fluorescence intensity in Adrenal gland: 721.9
  fluorescence intensity in Brain: 235.9
  fluorescence intensity in Fat: 221.1
  fluorescence intensity in Heart: 253.8
  fluorescence intensity in Intestine: 378.0
  fluorescence intensity in Kidney: 427.7
  fluorescence intensity in Liver: 847.4
  fluorescence intensity in Lung: 426.0
  fluorescence intensity in Muscle: 169.3
  fluorescence intensity in Pancreas: 347.0
  fluorescence intensity in Salivary gland: 488.5
  fluorescence intensity in Seminal gland: 261.0
  fluorescence intensity in Spleen: 488.6
  fluorescence intensity in Testicle: 723.1
[2]; 16 h
  fluorescence intensity in Adrenal gland: 1086.2
  fluorescence intensity in Brain: 134.7
  fluorescence intensity in Fat: 117.0
  fluorescence intensity in Heart: 281.5
  fluorescence intensity in Intestine: 640.4
  fluorescence intensity in Kidney: 343.0
  fluorescence intensity in Liver: 1157.2
  fluorescence intensity in Lung: 423.5
  fluorescence intensity in Muscle: 281.9
  fluorescence intensity in Pancreas: 332.6
  fluorescence intensity in Salivary gland: 838.8
  fluorescence intensity in Seminal gland: 163.0
  fluorescence intensity in Spleen: 373.3
  fluorescence intensity in Testicle: 525.4
[2]; 24 h
  fluorescence intensity in Adrenal gland: 1105.9
  fluorescence intensity in Brain: 109.3
  fluorescence intensity in Fat: 142.1
  fluorescence intensity in Heart: 239.7
  fluorescence intensity in Intestine: 621.0
  fluorescence intensity in Kidney: 323.1
  fluorescence intensity in Liver: 1152.7
  fluorescence intensity in Lung: 406.0
  fluorescence intensity in Muscle: 144.9
  fluorescence intensity in Pancreas: 268.9
  fluorescence intensity in Salivary gland: 501.1
  fluorescence intensity in Seminal gland: 170.6
  fluorescence intensity in Spleen: 638.0
[2]; 48 h
  fluorescence intensity in Adrenal gland: 783.7
  fluorescence intensity in Brain: 160.4
  fluorescence intensity in Fat: 185.1
  fluorescence intensity in Heart: 178.1
  fluorescence intensity in Intestine: 381.6
  fluorescence intensity in Kidney: 168.3
  fluorescence intensity in Liver: 988.2
  fluorescence intensity in Lung: 346.5
  fluorescence intensity in Muscle: 131.7
  fluorescence intensity in Pancreas: 266.2
  fluorescence intensity in Salivary gland: 489.7
  fluorescence intensity in Seminal gland: 166.7
  fluorescence intensity in Spleen: 656.7
  fluorescence intensity in Testicle: 648.6
[2]; 72 h
  fluorescence intensity in Adrenal gland: 717.3
  fluorescence intensity in Brain: 14.8
  fluorescence intensity in Fat: 78.0
  fluorescence intensity in Heart: 142.3
  fluorescence intensity in Intestine: 267.8
  fluorescence intensity in Kidney: 160.3
  fluorescence intensity in Liver: 648.0
  fluorescence intensity in Lung: 286.6
  fluorescence intensity in Muscle: 109.2
  fluorescence intensity in Pancreas: 160.6
  fluorescence intensity in Salivary gland: 430.2
  fluorescence intensity in Seminal gland: 74.4
  fluorescence intensity in Spleen: 278.0
  fluorescence intensity in Testicle: 481.2
[2]; Seminal glands, 2 h
  fluorescence intensity in Seminal glands: 175.3
